Measurements as given in US9023853B2, “Janus kinase 2 (JAK2) inhibitor for the treatment of lupus” (Cephalon, Inc., priority 2010, dated 2015).

Legend:
Format in all cases: in vivo, mouse
IFNα = assay: Serum IFNα at EOS in NZM mice; conditions: for serum IFNα decrease compared to vehicle: EOS
Protocol: (§1) Age mated, female, NZM or NZW/LacJ, mice were matured for the study of lupus nephritis for a total of 7 months or 210 days at which time urine was collected for proteinuria detection. Mice with 0.5-1.0 mg/ml of urine protein as determined by an optical density-based total protein precipitation assay and cross-checked for 30-300 mg/dl of protein as determined by a stick assay were considered proteinuria positive and selected for study entry. Groups were normalized to contain a Gaussian distribution of proteinuria positive animals (i.e., ⅓ low proteinuria, ⅓ medium, ⅓ high) then randomized between groups before ear marking and taking baseline measures including urine and serum collections. A total of five mice from the total population were randomly selected for baseline kidney histology evaluation. Treatments and tests for each group are as described in FIG. 12. Briefly, with a minimum of 10 mice per group, COMPOUND A was administered at 100 mg/kg or 55 mg/kg, both twice a day and orally. […] Vehicle included 3% DMSO, 10% Solutol and 87% PBS. […] End-stage lupus nephritis was evaluated by histopathology and scored by a board certified pathologist for the assessment of total renal damage in diseased animals using the scoring method described by Smith et al (Smith, Dong et al. 2007). […] Day-98 or “end of treatment/study” represents 310 days of age for the NZM animals.

IL-12 = assay: Serum IL-12 (Luminex) in NZM mice
Protocol: (§2) For the processing of serum samples for cytokine analysis, frozen plasma at −80° C. was thawed on ice, vortexed, and centrifuged for 10 minutes to remove debris and aggregates. A total of 25-50 μL of serum was used for Luminex® assays following the manufacturer's instructions. Ten different mouse cytokines were measured using the mouse cytokine 10-plex bead kit (Invitrogen, Carlsbad, Calif., no. LMC0001). Briefly, filter plates (Millipore, Billerica, Mass., no. MAIPSWU10), were pre-wet with 200 μL of wash solution (kit component) and 25 μL of beads were added per well. […]
(§3) Age mated, female, NZM or NZW/LacJ, mice were matured for the study of lupus nephritis for a total of 7 months or 210 days at which time urine was collected for proteinuria detection. Mice with 0.5-1.0 mg/ml of urine protein as determined by an optical density-based total protein precipitation assay and cross-checked for 30-300 mg/dl of protein as determined by a stick assay were considered proteinuria positive and selected for study entry. […] End-stage lupus nephritis was evaluated by histopathology and scored by a board certified pathologist for the assessment of total renal damage in diseased animals using the scoring method described by Smith et al (Smith, Dong et al. 2007). […]

KC/IL-8 = assay: Serum KC/IL-8 in NZM mice
Protocol: as §2, §3

plasma cells = assay: Spleen plasma cells by flow cytometry in NZM mice
Protocol: Antibodies used for flow cytometry consisted of anti-mouse CD138-APC (eBioscience, San Diego, Calif.), anti-mouse CD19-FITC (eBioscience, San Diego, Calif.), anti-mouse CD38-PE (eBioscience, San Diego, Calif.) and anti-mouse CD45R/B220-Cyc (eBioscience, San Diego, Calif.), Rat IgG1-APC isotype control (eBioscience, San Diego, Calif.), Rat IgG2a-PE isotype control (eBioscience, San Diego, Calif.). All samples were analyzed using an Accuri C6 Flow Cytometer. Complete media was used for all experiments involving the ex vivo culture of splenocytes for all Elispot experiments. Complete media consisted of RPMI1640 (Cellgro, Manassas, Va.), plus 1% Pen-Strep (Cellgro, Manassas, Va.), 1% L-Gln (Cellgro, Manassas, Va.), 1% NEAA (Cellgro, Manassas, Va.), β-ME (Cellgro, Manassas, Va.), plus 10% FBS (Cellgro, Manassas, Va.).
Washed, RBC-lysed splenocytes were stained for plasma cell markers as previously used in published reports (Neubert, Meister et al. 2008). As used herein the term “plasma cell” will refer to the following immunophenotype definition: Plasma cells were defined as live CD19-negative, CD45R/B220-negative, CD138-positive, CD38-positive events for the MRL/lpr model. A total of 200,000-500,000 events were collected per tube/sample. […]
as §3

[1] = tested on: ASCs specific for chromatin; assay: Anti-chromatin antibody secreting B-cell Elispot, NZM spleen; conditions: NZM mice
Protocol: as §1

Structure (SMILES) | serum IFNα decrease compared to vehicle (IFNα; COMPOUND A 55 mg/kg) [%] | serum IFNα decrease compared to vehicle (IFNα; COMPOUND A 100 mg/kg) [%] | serum IL-12 decrease compared to vehicle (IL-12; 55 mg/kg) [%] | serum IL-12 decrease compared to vehicle (IL-12; 100 mg/kg) [%] | serum KC/IL-8 decrease compared to vehicle (KC/IL-8; 55 mg/kg) [%] | serum KC/IL-8 decrease compared to vehicle (KC/IL-8; 100 mg/kg) [%] | spleen plasma cells decrease compared to vehicle (plasma cells; COMPOUND A 55 mg/kg) [%] | spleen plasma cells decrease compared to vehicle (plasma cells; COMPOUND A 100 mg/kg) [%] | ASCs specific for chromatin, decrease ([1]; COMPOUND A 55 mg/kg) [%] | ASCs specific for chromatin, decrease ([1]; COMPOUND A 100 mg/kg) [%] | serum IFNα reduction (IFNα; CTX 50 mg/kg once weekly ip) | levels of spleen plasma cells (plasma cells; cyclophosphamide 50 mg/kg once weekly ip) | ASCs specific for chromatin, decrease ([1]; CTX 50 mg/kg once weekly ip) [%]
CN1CCN(c2cccc(Nc3nc4c(-c5ccc(S(C)(=O)=O)cc5)cccn4n3)c2)CC1 [COMPOUND A, [8-(4-methanesulfonyl-phenyl)-[1,2,4]triazolo[1,5-a]pyridin-2-yl]-[3-(4-methyl-piperazin-1-yl)-phenyl]-amine] | 70.2 | 73.2 | 99.4 | 99.9 | 78.0 | 72.9 | 57.6 | 52.9 | 97.4 | 100 |  |  | 
O=P1(N(CCCl)CCCl)NCCCO1 (stereo not shown) [CTX, cyclophosphamide, reference compound] |  |  |  |  |  |  |  |  |  |  | Neither standard of care agent (i.e., CTX or DEX) exhibited a significant reduction | the decrease was not significant | 100
